In ChEMBL document CHEMBL3991601, “The target landscape of clinical kinase drugs” (Science, 2017):
Activity calls are given as the source filed them. Cut-off read from the data, not from the text of the source, for most assays here: actives have a measured Kd and inactives only a lower limit.

Key:
[1] = target: T1, Serine/threonine-protein kinase 3 (Homo sapiens, UniProt Q13188)
T1 sequence (Q13188 whole entry): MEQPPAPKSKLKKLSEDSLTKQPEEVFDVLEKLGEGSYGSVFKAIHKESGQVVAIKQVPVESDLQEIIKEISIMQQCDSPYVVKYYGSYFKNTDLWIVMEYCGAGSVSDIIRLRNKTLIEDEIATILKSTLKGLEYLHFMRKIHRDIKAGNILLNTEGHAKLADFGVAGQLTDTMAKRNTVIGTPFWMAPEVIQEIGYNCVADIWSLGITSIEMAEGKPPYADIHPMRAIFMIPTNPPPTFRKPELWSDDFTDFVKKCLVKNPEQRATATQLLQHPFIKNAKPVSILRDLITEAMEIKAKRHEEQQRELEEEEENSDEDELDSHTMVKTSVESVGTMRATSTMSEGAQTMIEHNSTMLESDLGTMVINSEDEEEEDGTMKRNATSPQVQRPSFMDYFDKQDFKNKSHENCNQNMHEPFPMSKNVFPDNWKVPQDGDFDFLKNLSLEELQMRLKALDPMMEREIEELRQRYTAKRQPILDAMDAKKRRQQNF

[2] = target: T2, Aurora kinase A (Homo sapiens, UniProt O14965)
T2 sequence (O14965 whole entry): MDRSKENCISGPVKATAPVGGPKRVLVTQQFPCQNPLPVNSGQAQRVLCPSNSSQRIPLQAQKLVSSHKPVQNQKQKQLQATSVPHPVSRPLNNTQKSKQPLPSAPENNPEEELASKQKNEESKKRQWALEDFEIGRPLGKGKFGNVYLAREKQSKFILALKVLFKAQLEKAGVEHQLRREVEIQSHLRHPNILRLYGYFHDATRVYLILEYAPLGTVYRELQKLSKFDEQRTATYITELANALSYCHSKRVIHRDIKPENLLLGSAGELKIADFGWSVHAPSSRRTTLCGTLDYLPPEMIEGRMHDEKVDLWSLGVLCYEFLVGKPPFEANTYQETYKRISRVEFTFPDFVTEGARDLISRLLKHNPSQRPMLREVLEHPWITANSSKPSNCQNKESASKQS

[3] = target: T3, Mitogen-activated protein kinase kinase kinase 2 (Homo sapiens, UniProt Q9Y2U5)
T3 sequence (Q9Y2U5 whole entry): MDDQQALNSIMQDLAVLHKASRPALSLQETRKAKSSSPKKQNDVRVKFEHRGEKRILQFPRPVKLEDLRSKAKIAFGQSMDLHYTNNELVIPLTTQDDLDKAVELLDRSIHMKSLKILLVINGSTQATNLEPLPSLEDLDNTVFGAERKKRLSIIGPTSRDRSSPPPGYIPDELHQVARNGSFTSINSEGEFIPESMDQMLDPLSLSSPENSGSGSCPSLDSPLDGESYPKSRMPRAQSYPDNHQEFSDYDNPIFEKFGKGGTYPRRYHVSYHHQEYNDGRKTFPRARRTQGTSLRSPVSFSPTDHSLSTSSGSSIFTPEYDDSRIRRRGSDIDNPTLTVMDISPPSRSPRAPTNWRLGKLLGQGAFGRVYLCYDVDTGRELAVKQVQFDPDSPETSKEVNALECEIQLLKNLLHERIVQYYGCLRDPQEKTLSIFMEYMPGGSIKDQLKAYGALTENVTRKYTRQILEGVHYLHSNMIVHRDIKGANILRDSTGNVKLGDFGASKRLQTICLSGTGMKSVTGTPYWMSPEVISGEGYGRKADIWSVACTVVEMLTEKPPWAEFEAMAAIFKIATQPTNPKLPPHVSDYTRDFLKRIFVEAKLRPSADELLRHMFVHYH

[4] = target: T4, EKC/KEOPS complex subunit TP53RK (Homo sapiens, UniProt Q96S44)
T4 sequence (Q96S44 whole entry): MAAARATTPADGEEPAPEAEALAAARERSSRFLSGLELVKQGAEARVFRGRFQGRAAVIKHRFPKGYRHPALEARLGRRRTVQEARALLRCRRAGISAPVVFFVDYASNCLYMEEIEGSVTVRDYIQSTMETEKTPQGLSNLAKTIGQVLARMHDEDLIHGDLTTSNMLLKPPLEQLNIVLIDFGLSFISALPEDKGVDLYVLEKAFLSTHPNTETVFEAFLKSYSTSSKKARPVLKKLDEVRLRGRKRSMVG

[5] = target: T5, Structural maintenance of chromosomes protein 1A (Homo sapiens, UniProt Q14683)
T5 sequence (Q14683 whole entry): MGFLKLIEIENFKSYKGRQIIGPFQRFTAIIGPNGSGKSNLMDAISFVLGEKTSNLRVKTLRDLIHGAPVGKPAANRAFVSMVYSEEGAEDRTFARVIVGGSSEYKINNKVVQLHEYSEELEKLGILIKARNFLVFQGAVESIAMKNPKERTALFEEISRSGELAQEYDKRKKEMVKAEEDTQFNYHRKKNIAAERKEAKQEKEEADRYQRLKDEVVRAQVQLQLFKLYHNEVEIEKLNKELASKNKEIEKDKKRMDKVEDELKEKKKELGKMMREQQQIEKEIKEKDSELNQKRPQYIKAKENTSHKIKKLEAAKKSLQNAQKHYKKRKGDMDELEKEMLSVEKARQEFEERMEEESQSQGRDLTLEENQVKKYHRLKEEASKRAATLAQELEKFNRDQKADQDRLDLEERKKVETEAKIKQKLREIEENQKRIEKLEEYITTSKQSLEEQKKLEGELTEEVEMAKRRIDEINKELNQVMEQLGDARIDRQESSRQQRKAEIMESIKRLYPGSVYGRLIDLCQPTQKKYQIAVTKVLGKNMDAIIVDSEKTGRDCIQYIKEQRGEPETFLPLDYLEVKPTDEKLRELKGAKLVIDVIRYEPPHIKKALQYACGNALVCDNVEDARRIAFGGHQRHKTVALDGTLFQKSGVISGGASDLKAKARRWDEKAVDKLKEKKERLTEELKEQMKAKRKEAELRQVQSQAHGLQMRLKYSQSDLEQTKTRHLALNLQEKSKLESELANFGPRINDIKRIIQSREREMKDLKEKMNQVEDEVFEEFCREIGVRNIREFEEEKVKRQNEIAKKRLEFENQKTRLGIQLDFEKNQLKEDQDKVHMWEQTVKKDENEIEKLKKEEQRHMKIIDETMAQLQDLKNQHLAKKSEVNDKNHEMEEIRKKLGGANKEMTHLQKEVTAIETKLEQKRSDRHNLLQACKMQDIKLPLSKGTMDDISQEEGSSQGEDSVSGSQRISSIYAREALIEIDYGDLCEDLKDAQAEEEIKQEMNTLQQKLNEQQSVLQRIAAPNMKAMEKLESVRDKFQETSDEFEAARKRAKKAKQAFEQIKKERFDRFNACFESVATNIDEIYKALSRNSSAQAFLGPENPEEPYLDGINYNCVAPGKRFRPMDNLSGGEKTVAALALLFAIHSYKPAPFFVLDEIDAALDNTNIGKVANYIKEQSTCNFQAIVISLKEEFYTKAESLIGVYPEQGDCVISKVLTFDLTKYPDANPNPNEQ
Note: in the data inactive means no Kd found up to 30 µM.

| Structure (SMILES) | Kd [1] | Kd [2] | Kd [3] | Kd [4] | Kd [5] |
| --- | --- | --- | --- | --- | --- |
| CC(C)c1cc(CNc2nc(Nc3cc(C4CC4)[nH]n3)cc(N3CCN(C)CC3)n2)on1 [XL-228] | 0.462 µM (active) | 0.003 µM (active) | > 30 µM (inactive) | > 30 µM (inactive) | > 30 µM (inactive) |
| C[C@@H](N)c1ccc(C(=O)Nc2ccnc3[nH]ccc23)cc1 [Y-39983] | > 30 µM (inactive) | > 30 µM (inactive) | > 30 µM (inactive) | > 30 µM (inactive) | > 30 µM (inactive) |
| CN1C/C=C/CCOc2cccc(c2)-c2ccnc(n2)Nc2cccc(c2)C1 [ZOTIRACICLIB] | 0.311 µM (active) | > 30 µM (inactive) | > 30 µM (inactive) | > 30 µM (inactive) | > 30 µM (inactive) |
